pEC50: −log10 of the molar value. *1 amine or outer side, *2 acyl side, *3 side chain or, on linkers, in order; H or OH if unused. Where a SMILES comes first, the peptide text is derived from it. Bridges are numbered along the chain shown (N, C = ends). [ ]: non-standard residue; d: D form. Phe(4-guanidino) = N=C(N)Nc1ccc(C[C@H](N)C(=O)O)cc1; X78 = Nc1ccnc2ccc(C[C@H](N[*:1])C(=O)[*:2])cc12; Abu(4,4,4-F3) = N[C@@H](CC(F)(F)F)C(=O)O; Leu(4,5-dehydro) = C=C(C)C[C@H](N)C(=O)O; Arg(Me2s) = CN=C(NC)NCCC[C@H](N)C(=O)O; Phe(4-F) = N[C@@H](Cc1ccc(F)cc1)C(=O)O; 1Nal = N[C@@H](Cc1cccc2ccccc12)C(=O)O; NHCH2CH2SCH2CO = O=C(CSCCN[*:1])[*:2]; Phe(2-F) = N[C@@H](Cc1ccccc1F)C(=O)O; Gly(octyl) = CCCCCCCC[C@H](N)C(=O)O; NMe3Pal = CN[C@@H](Cc1cccnc1)C(=O)O; X41 = COCCC[C@H](N[*:1])C(=O)[*:2]; NMeF = CN[C@@H](Cc1ccccc1)C(=O)O; hIle = CC[C@H](C)C[C@H](N)C(=O)O; 3Pal = N[C@@H](Cc1cccnc1)C(=O)O; 4Pal = N[C@@H](Cc1ccncc1)C(=O)O; Ahp(2) = CCCCC[C@H](N)C(=O)O; Cba = N[C@@H](CC1CCC1)C(=O)O; hSer = N[C@@H](CCO)C(=O)O; αMeC = C[C@](N)(CS)C(=O)O; Nle = CCCC[C@H](N)C(=O)O; Pra = C#CC[C@H](N)C(=O)O; Nva = CCC[C@H](N)C(=O)O; AEEA = NCCOCCOCC(=O)O

The target in the experiment is KRAS-G12D protein (Homo sapiens, UniProt P01116, G12D). Kind of experiment: SOS-mediated nucleotide exchange assay (BODIPY-GDP / Tb-streptavidin TR-FRET). Type of experiment: biochemical. (In general: Time-resolved FRET reads energy transfer from a long-lived donor to a nearby acceptor.)
KRAS-G12D protein, sequence (P01116 1-188 isoform P01116-2 G12D): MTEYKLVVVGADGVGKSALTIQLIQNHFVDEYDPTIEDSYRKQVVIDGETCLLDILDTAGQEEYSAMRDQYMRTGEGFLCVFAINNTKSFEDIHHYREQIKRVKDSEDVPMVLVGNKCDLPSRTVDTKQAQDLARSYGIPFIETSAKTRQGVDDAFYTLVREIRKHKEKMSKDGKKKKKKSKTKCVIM
For the molecule `CCCC[C@@H]1NC(=O)[C@H](CCCCN)NC(=O)[C@H](CCCNC(=N)N)NC(=O)[C@H](Cc2cccc3ccccc23)NC(=O)CSC[C@H](C(N)=O)NC(=O)[C@H](Cc2ccccc2)N(C)C(=O)[C@H](CCCC)NC(=O)[C@H](Cc2ccc(O)cc2)NC1=O` [compound 19, cyclo(INal-R-K-Nle-Y-Nle-NMeF-dCl-ClAc)], the negative-log EC50 (pEC50) – broadly, −log10 of the EC50, conventionally taken in molar units – is 5.89.
As for `CCC[C@@H]1NC(=O)[C@H](Cc2ccc(O)cc2)NC(=O)[C@H](CC(C)C)NC(=O)[C@H](Cc2ccc(O)cc2)NC(=O)[C@H](CCCNC(=N)N)NC(=O)[C@H](Cc2ccccc2)NC(=O)CSC[C@H](C(N)=O)NC(=O)[C@H](Cc2ccccc2)N(C)C1=O` [compound 21, cyclo(F-R-Y-L-Y-Nva-NMeF-dCl-ClAc)], the pEC50 is 5.19.
In the case of `CCCC[C@@H]1NC(=O)[C@H](Cc2ccc(OC)cc2)NC(=O)[C@H](CC(C)C)NC(=O)[C@H](Cc2ccc(NC(=N)N)cc2)NC(=O)[C@H](Cc2ccc3nccc(N)c3c2)NC(=O)[C@H](Cc2ccccc2)NC(=O)CSC[C@@H](C(N)=O)NC(=O)[C@H](Cc2ccccc2)N(C)C1=O` [compound 29, cyclo(F-6Quin4NH2-Phe4Gn-L-TyrOMe-Nle-NMeF-Cl-ClAc)] ({CH2CO}-F[X78][Phe(4-guanidino)]LY(Me)[Nle][NMeF]C-NH2; thioether N-8), the pEC50 was 5.11.
Consider `C=C(C)C[C@@H]1NC(=O)[C@H](CCCC)NC(=O)[C@H](Cc2cccnc2)NC(=O)[C@H](CCCNC(=N)N)NC(=O)[C@H](Cc2ccccc2)NC(=O)CSC[C@@](C)(C(N)=O)NC(=O)[C@H](Cc2cccnc2)N(C)C(=O)[C@H](CCCC)NC1=O` [compound 44, cyclo(F-R-3Pal-Nle-deHLeu-Nle-NMe3Pal-aMeCl-ClAc)] ({CH2CO}-FR[3Pal][Nle][Leu(4,5-dehydro)][Nle][NMe3Pal][αMeC]-NH2; thioether N-8), for which the negative logarithm of the EC50 (pEC50) is 6.28.
Under `CCCC[C@@H]1NC(=O)[C@H](Cc2ccc(O)cc2)NC(=O)[C@H](CC(C)C)NC(=O)[C@H](Cc2ccc(NC(=N)N)cc2)NC(=O)[C@H](CCCNC(=N)N)NC(=O)[C@H](Cc2ccccc2)NC(=O)CSC[C@@H](C(N)=O)NC(=O)[C@H](Cc2ccccc2)N(C)C1=O` [compound 45, cyclo(F-R-Phe4Gn-L-Y-Nle-NMeF-Cl-ClAc)] ({CH2CO}-FR[Phe(4-guanidino)]LY[Nle][NMeF]C-NH2; thioether N-8) stands 7.90.
The result for `CCCC[C@@H]1NC(=O)[C@H](Cc2ccc(OC)cc2)NC(=O)[C@H](CC(C)C)NC(=O)[C@H](Cc2ccc(NC(=N)N)cc2)NC(=O)[C@H](CCCN=C(NC)NC)NC(=O)[C@H](Cc2ccccc2)NC(=O)CSC[C@H](C(N)=O)NC(=O)[C@H](Cc2ccccc2)N(C)C1=O` [compound 46, cyclo(F-ArgMeMe-Phe4Gn-L-TyrOMe-Nle-NMeF-dCl-ClAc)] ({CH2CO}-F[Arg(Me2s)][Phe(4-guanidino)]LY(Me)[Nle][NMeF][dC]-NH2; thioether N-8) reads 5.94.
`CCCC[C@@H]1NC(=O)[C@H](Cc2ccc(OC)cc2)NC(=O)[C@H](CC(C)C)NC(=O)[C@H](Cc2ccc(NC(=N)N)cc2)NC(=O)[C@H](CCC)NC(=O)[C@H](Cc2ccccc2)NC(=O)CSC[C@H](C(N)=O)NC(=O)[C@H](Cc2ccccc2)N(C)C1=O` [compound 48, cyclo(F-Nva-Phe4Gn-L-TyrOMe-Nle-NMeF-dCl-ClAc)] ({CH2CO}-F[Nva][Phe(4-guanidino)]LY(Me)[Nle][NMeF][dC]-NH2; thioether N-8): the negative logarithm of the EC50 (pEC50) was 5.36.
As to `CCCC[C@@H]1NC(=O)[C@H](Cc2ccccc2F)NC(=O)[C@H](CC2CCC2)NC(=O)[C@H](CCO)NC(=O)[C@H](CCCNC(=N)N)NC(=O)[C@H](Cc2ccccc2)NC(=O)CSC[C@@](C)(C(N)=O)NC(=O)[C@H](Cc2ccccc2)N(C)C1=O` [compound 50, cyclo(F-R-hS-cBuA-Phe2F-Nle-NMeF-aMeCl-ClAc)] ({CH2CO}-FR[hSer][Cba][Phe(2-F)][Nle][NMeF][αMeC]-NH2; thioether N-8), the pEC50 is 6.30.
The molecule `C#CC[C@@H]1NC(=O)[C@H](CC2CCC2)NC(=O)[C@H](Cc2cccnc2)NC(=O)[C@H](CCCNC(=N)N)NC(=O)[C@H](Cc2ccccc2)NC(=O)CSC[C@@](C)(C(N)=O)NC(=O)[C@H](Cc2ccccc2)N(C)C(=O)[C@H](CCCC)NC1=O` [compound 51, cyclo(F-R-3Pal-cBuA-Pra-Nle-NMeF-aMeCl-ClAc)] ({CH2CO}-FR[3Pal][Cba][Pra][Nle][NMeF][αMeC]-NH2; thioether N-8) had a pEC50 of 6.53.
On to `CCCC[C@@H]1NC(=O)[C@H](COC)NC(=O)[C@H](CC2CCC2)NC(=O)[C@H](Cc2cccnc2)NC(=O)[C@H](CCCNC(=N)N)NC(=O)[C@H](Cc2ccccc2)NC(=O)CSC[C@@](C)(C(N)=O)NC(=O)[C@H](Cc2ccccc2)N(C)C1=O` [compound 52, cyclo(F-R-3Pal-cBuA-SerOMe-Nle-NMeF-aMeCl-ClAc)] ({CH2CO}-FR[3Pal][Cba]S(Me)[Nle][NMeF][αMeC]-NH2; thioether N-8), for which the pEC50 was 6.03.
On to `CCCC[C@@H]1NC(=O)[C@H](CC(F)(F)F)NC(=O)[C@H](CC2CCC2)NC(=O)[C@H](Cc2cccnc2)NC(=O)[C@H](CCCNC(=N)N)NC(=O)[C@H](Cc2ccccc2)NC(=O)CSC[C@@](C)(C(N)=O)NC(=O)[C@H](Cc2ccccc2)N(C)C1=O` [compound 54, cyclo(F-R-3Pal-cBuA-AbuF3-Nle-NMeF-aMeCl-ClAc)] ({CH2CO}-FR[3Pal][Cba][Abu(4,4,4-F3)][Nle][NMeF][αMeC]-NH2; thioether N-8), for which the negative-log EC50 (pEC50) was 6.07.
Molecule `CCCC[C@@H]1NC(=O)[C@H](CCCOC)NC(=O)[C@H](CC2CCC2)NC(=O)[C@H](Cc2cccnc2)NC(=O)[C@H](CCCNC(=N)N)NC(=O)[C@H](Cc2ccccc2)NC(=O)CSC[C@@](C)(C(N)=O)NC(=O)[C@H](Cc2ccccc2)N(C)C1=O` [compound 55, cyclo(F-R-3Pal-cBuA-NvaOMe-Nle-NMeF-aMeCl-ClAc)] ({CH2CO}-FR[3Pal][Cba][X41][Nle][NMeF][αMeC]-NH2; thioether N-8) showed a pEC50 of 5.36.
Under `CCCCC[C@@H]1NC(=O)[C@H](Cc2ccc(O)cc2)NC(=O)[C@H](CC(C)C)NC(=O)[C@H](Cc2ccc(O)cc2)NC(=O)[C@H](CCCNC(=N)N)NC(=O)[C@H](Cc2ccccc2)NC(=O)CSC[C@@H](C(=O)NCC(=O)N[C@@H](CCCCN)C(=O)N[C@@H](CCCCN)C(N)=O)NC(=O)[C@H](Cc2ccccc2)N(C)C1=O` [compound 56, cyclo(F-R-Y-L-Y-Ahp-NMeF-C2-ClAc)] ({CH2CO}-FRYLY[Ahp(2)][NMeF]CGKK-NH2; thioether N-8) stands 6.27; under `CCCCC[C@@H]1NC(=O)[C@H](Cc2ccc(O)cc2)NC(=O)[C@H](CC(C)C)NC(=O)[C@H](Cc2ccc(O)cc2)NC(=O)[C@H](CCCNC(=N)N)NC(=O)[C@H](Cc2ccccc2)NC(=O)CSC[C@@H](C(=O)NCCOCCOCC(N)=O)NC(=O)[C@H](Cc2ccccc2)N(C)C1=O` [compound 57, cyclo(F-R-Y-L-Y-Ahp-NMeF-C3-ClAc)] ({CH2CO}-FRYLY[Ahp(2)][NMeF]C[AEEA]-NH2; thioether N-8), 6.32; under `CCCCC[C@@H]1NC(=O)[C@H](Cc2ccc(O)cc2)NC(=O)[C@H](CC(C)C)NC(=O)[C@H](Cc2ccc(O)cc2)NC(=O)[C@H](CCCNC(=N)N)NC(=O)[C@H](Cc2ccccc2)NC(=O)CSC[C@@H](C(=O)NCCOCCOCC(=O)NCCOCCOCC(N)=O)NC(=O)[C@H](Cc2ccccc2)N(C)C1=O` [compound 58, cyclo(F-R-Y-L-Y-Ahp-NMeF-C4-ClAc)] ({CH2CO}-FRYLY[Ahp(2)][NMeF]C[AEEA][AEEA]-NH2; thioether N-8), 6.36.
For the molecule `CCCCCCCC[C@@H]1NC(=O)[C@H](Cc2ccc(O)cc2)NC(=O)[C@H](CC(C)C)NC(=O)[C@H](Cc2ccc(O)cc2)NC(=O)[C@H](CCCNC(=N)N)NC(=O)[C@H](Cc2ccccc2)NC(=O)CSC[C@@H](C(=O)NCC(=O)N[C@@H](CCCCN)C(=O)N[C@@H](CCCCN)C(N)=O)NC(=O)[C@H](Cc2ccccc2)N(C)C1=O` [compound 59, cyclo(-F-R-Y-L-Y-Aca-NMeF-C2-ClAc)] ({CH2CO}-FRYLY[Gly(octyl)][NMeF]CGKK-NH2; thioether N-8), the negative-log EC50 (pEC50) was 6.09.
`CCC[C@@H]1NC(=O)[C@H](Cc2ccc(OC)cc2)NC(=O)[C@H](C[C@@H](C)CC)NC(=O)[C@H](Cc2ccncc2)NC(=O)[C@H](CCCNC(=N)N)NC(=O)[C@H](Cc2ccc(F)cc2)NC(=O)CSC[C@H](C(=O)O)NC(=O)[C@H](Cc2ccccc2)N(C)C1=O` [compound 62, cyclo(Phe4F-R-4Pal-hlle-TyrOMe-Nva-NMeF-dC-ClAc)] ({CH2CO}-[Phe(4-F)]R[4Pal][hIle]Y(Me)[Nva][NMeF][dC]-OH; thioether N-8) gave a negative logarithm of the EC50 (pEC50) of 5.69.
As to `CCC[C@@H]1NC(=O)[C@H](Cc2ccc(OC)cc2)NC(=O)[C@H](CC(C)C)NC(=O)[C@H](Cc2ccncc2)NC(=O)[C@H](CCCNC(=N)N)NC(=O)[C@H](Cc2ccc(F)cc2)NC(=O)CSC[C@H](C(=O)NCC(=O)O)NC(=O)[C@H](Cc2ccccc2)N(C)C1=O` [compound 65, cyclo(Phe4F-R-4Pal-L-TyrOMe-Nva-NMeF-dC5-ClAc)] ({CH2CO}-[Phe(4-F)]R[4Pal]LY(Me)[Nva][NMeF][dC]G-OH; thioether N-8), the negative logarithm of the EC50 (pEC50) was 7.15.
As for `CCC[C@@H]1NC(=O)[C@H](Cc2ccc(OC)cc2)NC(=O)[C@H](CC(C)C)NC(=O)[C@H](Cc2ccncc2)NC(=O)[C@H](CCCNC(=N)N)NC(=O)[C@H](Cc2ccc(F)cc2)NC(=O)CSC[C@H](C(=O)NCC(=O)NCC(=O)O)NC(=O)[C@H](Cc2ccccc2)N(C)C1=O` [compound 66, cyclo(Phe4F-R-4Pal-L-TyrOMe-Nva-NMeF-dC6-ClAc)] ({CH2CO}-[Phe(4-F)]R[4Pal]LY(Me)[Nva][NMeF][dC]GG-OH; thioether N-8), the pEC50 was 6.43.
Molecule `CCCC[C@@H]1NC(=O)[C@H](Cc2ccc(O)cc2)NC(=O)[C@H](CC(C)C)NC(=O)[C@H](Cc2ccc(O)cc2)NC(=O)[C@H](CCCNC(=N)N)NC(=O)[C@H](Cc2ccccc2)NC(=O)CSCCNC(=O)[C@H](Cc2ccccc2)N(C)C1=O` [compound 69, cyclo(F-R-Y-L-Y-Nle-NMeF-Cysteamine-ClAc)] gave a negative logarithm of the EC50 (pEC50) of 5.83.
`CCCC[C@@H]1NC(=O)[C@H](CCCCN)NC(=O)[C@H](CCCNC(=N)N)NC(=O)[C@H](Cc2cccc3ccccc23)NC(=O)CSCCNC(=O)[C@H](Cc2ccccc2)N(C)C(=O)[C@H](CCCC)NC(=O)[C@H](Cc2ccc(O)cc2)NC1=O` [compound 71, cyclo(INal-R-K-Nle-Y-Nle-NMeF-Cysteamine-ClAc)] (cyclo([1Nal]RK[Nle]Y[Nle][NMeF][NHCH2CH2SCH2CO])) showed a negative logarithm of the EC50 (pEC50) of 6.28.

(Values after US20260001914A1, “MACROCYCLIC PEPTIDES TARGETING KRAS” (Merck Sharp & Dohme LLC, priority 2022, published 2026).)
